The target of one data set is αvβ5 receptors (Homo sapiens, UniProt P06756+P18084). In words: Solid-phase binding assay, inhibition of [125I]Echistatin binding to αvβ5 receptors. On the procedure:
(§1) The receptor binding assays were performed as described (Orlando R. A., et al., J. Biol. Chem. 1991, 266, 19543). αvβ3 and αvβ5 were diluted to 500 ng/ml and 1 μg/ml, respectively, in coating buffer (20 mM Tris, pH 7.4, 150 mM NaCl, 2 mM CaCl2, 1 mM MgCl2, 1 mM MnCl2) and an aliquot of 100 μL was added to a 96-well microtiter plate and incubated overnight at 4° C. The plate was washed once with blocking/binding buffer (50 mM Tris, pH 7.4, 100 mM NaCl, 2 mM CaCl2, 1 mM MgCl2, 1 mM MnCl2, 1% bovine serum albumin), and then was incubated for additional 2 h at RT The plate was rinsed twice with the same buffer and incubated for 3 h at RT with radiolabeled ligand [^125I]Echistatin (Amersham Pharmacia Biotech) 0.05 nM (0.1 nM for αv β5) in the presence of competing inhibitors. After the incubation, the wells were washed and radioactivity was determined with a gamma-counter (Packard). Non-specific binding of ligand was determined with molar excess (200 nM) of cold echistatin.
(§2) The IC50 values reported in Tables 1 and 2 were calculated as the concentrations of compounds required for 50% inhibition of echistatin binding and were estimated by the Prism GraphPad program. The Ki of the competing ligands were calculated according to the Cheng-Prusoff equation (Cheng Y. C., et al., Biochem. Pharmacol., 1973, 22, 3099). Values are the mean±log standard error of triplicate determinations from two independent experiments.

Data set [1] relates to A2780 ovarian carcinoma cells. Briefly: Cytotoxicity, sulphorodamine B test (A2780). It counts as cell-based, human. As for the experimental part:
(§3) To evaluate the effect of the compound on survival cells, the sulphorodamine B test was used. To measure the effects of the compounds on cell growth, PC3 human prostate carcinoma and A2780 human ovarian carcinoma cells were used. A2780 and PC3 tumour cells were grown RPMI 1640 containing 10% fetal bovine serum (GIBCO).
(§4) Tumour cells were seeded in 96-well tissue culture plates at approximately 10% confluence and were allowed to attach and recover for at least 24 h. Varying concentrations of the drugs were then added to each well to calculate their IC50 value (the concentration which inhibits the 50% of cell survival). The plates were incubated at 37° C. for 72 h. At the end of the treatment, the plates were washed by removal of the supernatant and addition of PBS 3 times. 200 μl PBS and 50 μl of cold 80% trichloroacetic acid (TCA) were added. The plates were incubated on ice for at least 1 h. TCA was removed and the plates were washed 3 times by immersion in distilled-water and dried on paper and at 40° C. for 5 min. Then 200 μl of 0.4% sulphorodamine B in 1% acetic acid were added. The plates were incubated at RT for further 30 min. Sulphorodamine B was removed, the plates were washed by immersion in 1% acetic acid 3 times, then they were dried on paper and at 40° C. for 5 min. Then 200 μl Tris 10 mM were added, the plates were kept under stirring for 20 min. The cell survival was determined by means of optical density using a Multiskan spectrofluorimeter at 540 nm. The amount of cells killed was calculated as the percentage decrease in sulphorodamine B binding compared with control cultures.
(§5) The IC50 values were calculated with the “ALLFIT” program.

Data set [2] concerns PC3 prostate carcinoma cells. Briefly: Cytotoxicity, sulphorodamine B test (PC3). It counts as cell-based, human. On the procedure:
as §3, §4, §5

Data set [3] can be described thus: Stability of the linker-containing conjugate in various assays. Conditions: various assays conducted. The text has this: A number of linker-containing peptides as substrates of Cathepsin B have already been described, for example, Phe-Lys, Val-Cit (Dubowchick G. M., et al, Bioconjugate Chem., 2002, 13, 4, 855); Gly-Phe-Leu-Gly (Rejmanova P., et al, Biomaterials, 1985, 6, 1, 45); D-Ala-Phe-Lys (de Groot F. M. H., et al., Mol. Cancer. Ther., 2002, 1, 901). Some of these peptides have been successfully applied when attached to antibodies, which, due to their bulkiness, can shield them from plasma peptidases. However, when we experimented these peptide sequences applied to conjugates containing small ligands, as in the case of oligopeptides, they were immediately cleaved releasing the cytotoxic agent into the circulation, contrary to what described by other authors. […] The above cited paper from Dubowchick deals with cathepsin B-labile dipeptide ligands. The same authors also published four years before another study about the influence of the amino acid at position P2 when Cit amino acid was at P1 position, concluding that the best amino acid in such a position was Val because of hydrophobic interactions within the binding site of cathepsin B (Dubowchick G. M., et al, Bioorg. Med. Chem., 1998, 8, 3341), meanwhile the analogue containing Ala instead of Val contributed to slower noticeably the release of doxorubicin, which was clearly contrary to the objective of the study.

Data set [4] concerns PC3 prostate carcinoma cells. It counts as cell-based, human. On the procedure:
(§6) A2780 human ovarian carcinoma and PC3 prostate carcinoma cells were grown in medium culture RPMI 1640 containing 10% fetal bovine serum and 50 μg/ml gentamycin sulfate. Cells were maintained in a 37° C. incubator with saturated humidity and an atmosphere of 95% air and 5% CO2. A2780 tumour cell line expresses high levels of αvβ5 integrin, and PC3 low levels of both integrins.
(§7) In 96-well tissue culture plates, 50 μl/well of a solution of vitronectin (5 μg/ml) were added for 2 h at room temperature. The solutions were removed upsetting the plates. 50 μl/well of a solution 1% BSA were added for 1 h at RT. The plates were washed by addition of 100 μl/well of medium culture RPMI 1640 without fetal calf serum (FCS). The washing was repeated twice. The molecules were added at different concentrations in the range between 0.039 μM and 20 μM. The solutions were prepared by dilution 1:2 in medium culture without FCS. Tumour cells in the flasks were washed in saline solution before to be detached by scraper, by the addition of 5 ml of medium culture without FCS and 1% BSA. Tumour cells were counted after resuspension and added at an appropriate cellular density (40000-50000 cells/well). The plates were incubated for 1 h at 37° C. in humidified incubator with 5% CO2. Then, the solutions were removed upsetting the plates and washed once with 200 μl/well of PBS with Ca^2+ e Mg^2+. Tumour cells were fixed with 100 μl of a solution 4% paraformaldehyde in 0.2 M Sorensen phosphate buffer pH 7.2-7.4 for 10 min at RT The plates were upset and 100 μl of 1% Toluidine Blu solution were added for 10 min at RT The plates were washed twice by immersion in bi-distilled water and then dried at 60° C. in thermostat incubator (Kottermann). 100 μl/well of 1% SDS were added. The plates were kept under stirring for 20 min at RT and were then evaluated by Victor 1420 multilabel counter (Wallac) at 600 nm.
(§8) The IC50 value as parameter to measure the inhibiting effect of the molecules on tumour cell adhesion to vitronectin was evaluated using “ALLFIT” computer program.

The test system of data set [5] is A2780 ovarian carcinoma cells. It counts as cell-based, human. As for the experimental part:
as §6, §7, §8

In a further data set the target is αvβ3 receptor (Homo sapiens, UniProt P05106+P06756). Briefly: Solid-phase binding assay, inhibition of [125I]Echistatin binding to αvβ3 receptor. As for the experimental part: as §1, §2
Chain of αvβ3 receptor (P06756 31-889 limits assumed): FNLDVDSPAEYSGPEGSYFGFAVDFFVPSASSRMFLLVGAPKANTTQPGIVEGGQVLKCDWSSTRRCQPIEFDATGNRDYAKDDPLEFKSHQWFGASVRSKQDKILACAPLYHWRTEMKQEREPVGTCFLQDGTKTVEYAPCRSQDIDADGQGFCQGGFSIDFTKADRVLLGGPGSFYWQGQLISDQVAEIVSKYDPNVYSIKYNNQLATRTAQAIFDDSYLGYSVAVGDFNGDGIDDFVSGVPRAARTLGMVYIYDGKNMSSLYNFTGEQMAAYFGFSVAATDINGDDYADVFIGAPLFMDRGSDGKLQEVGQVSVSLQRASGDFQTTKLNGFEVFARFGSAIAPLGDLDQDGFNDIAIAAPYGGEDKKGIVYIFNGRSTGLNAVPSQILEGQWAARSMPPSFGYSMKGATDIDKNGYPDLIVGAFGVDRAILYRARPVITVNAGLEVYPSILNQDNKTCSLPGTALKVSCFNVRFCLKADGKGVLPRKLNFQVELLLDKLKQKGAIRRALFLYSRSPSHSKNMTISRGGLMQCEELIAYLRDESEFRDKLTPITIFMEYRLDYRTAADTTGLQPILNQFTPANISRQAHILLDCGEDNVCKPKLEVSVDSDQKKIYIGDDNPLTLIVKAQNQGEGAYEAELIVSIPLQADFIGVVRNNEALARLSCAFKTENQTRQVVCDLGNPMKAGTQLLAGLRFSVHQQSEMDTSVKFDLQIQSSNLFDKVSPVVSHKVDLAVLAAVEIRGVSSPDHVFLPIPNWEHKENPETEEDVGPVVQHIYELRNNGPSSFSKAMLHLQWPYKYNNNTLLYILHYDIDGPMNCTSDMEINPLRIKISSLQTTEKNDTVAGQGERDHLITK
Chain of αvβ3 receptor (P06756 891-1048 partner limits assumed): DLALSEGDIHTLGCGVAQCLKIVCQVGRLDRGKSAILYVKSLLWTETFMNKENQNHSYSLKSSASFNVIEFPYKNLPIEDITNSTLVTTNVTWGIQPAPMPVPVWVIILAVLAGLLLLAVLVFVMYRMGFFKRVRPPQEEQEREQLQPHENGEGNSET
Chain of αvβ3 receptor (P05106 27-788): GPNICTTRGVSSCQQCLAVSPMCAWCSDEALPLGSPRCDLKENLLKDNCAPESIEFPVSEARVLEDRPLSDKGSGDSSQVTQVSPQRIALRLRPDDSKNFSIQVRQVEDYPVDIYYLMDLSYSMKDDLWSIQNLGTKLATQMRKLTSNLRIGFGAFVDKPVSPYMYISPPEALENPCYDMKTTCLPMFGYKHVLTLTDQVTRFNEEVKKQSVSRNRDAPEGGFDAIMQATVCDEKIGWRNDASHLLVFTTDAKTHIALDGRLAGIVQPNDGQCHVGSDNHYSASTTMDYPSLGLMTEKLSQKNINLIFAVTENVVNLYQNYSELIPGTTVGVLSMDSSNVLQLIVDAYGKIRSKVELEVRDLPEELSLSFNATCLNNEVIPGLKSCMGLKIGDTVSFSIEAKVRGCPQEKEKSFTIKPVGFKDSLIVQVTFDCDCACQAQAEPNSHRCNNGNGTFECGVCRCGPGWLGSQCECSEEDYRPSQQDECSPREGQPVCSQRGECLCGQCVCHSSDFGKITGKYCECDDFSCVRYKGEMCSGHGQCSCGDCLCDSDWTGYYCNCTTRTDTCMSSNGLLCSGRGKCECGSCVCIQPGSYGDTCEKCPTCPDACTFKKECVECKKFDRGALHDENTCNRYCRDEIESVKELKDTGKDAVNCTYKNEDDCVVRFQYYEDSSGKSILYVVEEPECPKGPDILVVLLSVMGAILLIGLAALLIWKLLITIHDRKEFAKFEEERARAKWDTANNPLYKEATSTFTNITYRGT
Where [6] appears, read: A2780, 72 h of treatment, read-out: IC50 ± SD, cytotoxicity.
[7] abbreviates: PC3, 72 h of treatment, read-out: IC50 ± SD, cytotoxicity.
Where [8] appears, read: PC3, 1 h of treatment, read-out: IC50 ± SD, antiadhesive effect to vitronectin.
[9] abbreviates: A2780, 1 h of treatment, read-out: IC50 ± SD, antiadhesive effect to vitronectin.
The mark [10] stands for this setting: αvβ5, Cheng-Prusoff equation, read-out: Ki.
Setting [11] is: αvβ5, [125I]Echistatin 0.1 nM, read-out: IC50 ± log SE, inhibition of [125I]Echistatin binding (converted).
[12] abbreviates: αvβ3, Cheng-Prusoff equation, read-out: Ki.
Where [13] appears, read: αvβ3, [125I]Echistatin 0.05 nM, read-out: IC50 ± log SE, inhibition of [125I]Echistatin binding (converted).

Where two headings read alike, the source gives them in different places.

Chain of αvβ5 receptors (P06756 31-889 limits assumed): as the sequence (P06756 31-889 limits assumed) above
Chain of αvβ5 receptors (P06756 891-1048 partner limits assumed): as the sequence (P06756 891-1048 partner limits assumed) above
Chain of αvβ5 receptors (P18084 24-799): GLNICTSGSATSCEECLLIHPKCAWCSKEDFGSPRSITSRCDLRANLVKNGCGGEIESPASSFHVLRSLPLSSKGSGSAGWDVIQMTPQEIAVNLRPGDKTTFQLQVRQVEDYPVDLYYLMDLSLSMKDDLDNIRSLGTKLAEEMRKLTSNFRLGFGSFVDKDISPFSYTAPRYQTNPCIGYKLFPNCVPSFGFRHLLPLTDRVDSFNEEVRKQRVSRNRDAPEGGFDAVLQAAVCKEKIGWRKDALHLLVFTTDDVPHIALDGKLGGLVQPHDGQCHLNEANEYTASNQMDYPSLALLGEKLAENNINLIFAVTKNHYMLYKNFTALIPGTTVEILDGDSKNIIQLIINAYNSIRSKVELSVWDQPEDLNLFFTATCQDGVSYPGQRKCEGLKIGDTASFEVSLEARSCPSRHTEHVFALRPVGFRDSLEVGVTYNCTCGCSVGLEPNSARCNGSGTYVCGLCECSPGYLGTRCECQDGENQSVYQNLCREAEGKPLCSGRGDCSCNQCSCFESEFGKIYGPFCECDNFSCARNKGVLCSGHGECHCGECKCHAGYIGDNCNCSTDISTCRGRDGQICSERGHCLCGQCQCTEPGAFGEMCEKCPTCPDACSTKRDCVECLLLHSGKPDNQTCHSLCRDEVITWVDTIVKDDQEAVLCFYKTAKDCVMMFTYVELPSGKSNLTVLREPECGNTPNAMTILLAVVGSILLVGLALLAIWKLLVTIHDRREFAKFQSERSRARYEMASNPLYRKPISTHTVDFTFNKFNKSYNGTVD

Usually IC50 stands for the concentration that inhibits the measured activity by half. By Ki is commonly meant the equilibrium dissociation constant of an inhibitor or competing ligand from its target. With `CC[C@@]1(O)C(=O)OCc2c1cc1n(c2=O)Cc2c-1nc1ccccc1c2C=NOCCNC(=O)OCc1ccc(NC(=O)[C@H](CCCCN)NC(=O)[C@H](Cc2ccccc2)NC(=O)COCCOCCOCC(=O)NCc2ccc(C[C@@H]3NC(=O)[C@@H](Cc4ccccc4)NC(=O)[C@H](CC(=O)O)NC(=O)CNC(=O)[C@H](CCCNC(=N)N)NC3=O)cc2)cc1` [ST3280], the IC50 was 34.4 ± 0.8 nM on αvβ5 receptors; 8.4 ± 0.6 nM in data set [1] (setting [6]); 200 ± 30 nM in data set [2] (setting [7]); 1800 ± 400 nM in data set [4] (setting [8]); 2700 ± 300 nM in data set [5] (setting [9]); 9.7 ± 0.06 nM on αvβ3 receptor. The results for the Ki at αvβ5 receptors and at αvβ3 receptor were 23 nM and 8.5 nM, respectively. For the same compound, the stability entry in data set [3] is on record as “highly unstable”.

Take `CC[C@@]1(O)C(=O)OCc2c1cc1n(c2=O)Cc2c-1nc1ccccc1c2C=NOCCNC(=O)OCc1ccc(NC(=O)[C@H](CCCNC(N)=O)NC(=O)[C@H](C)NC(=O)c2cn(CCOCCOCCOCCC(=O)NCc3ccc(C[C@@H]4NC(=O)[C@@H](Cc5ccccc5)NC(=O)[C@H](CC(=O)O)NC(=O)CNC(=O)[C@H](CCCNC(=N)N)NC4=O)cc3)nn2)cc1` [ST4167]: the IC50 on αvβ5 receptors stood at 18.4 ± 0.89 nM; in data set [1] (setting [6]) it was 30 ± 3 nM; in data set [2] (setting [7]) it was 1000 ± 100 nM; in data set [4] (setting [8]), 560 ± 70 nM; in data set [5] (setting [9]) it was 670 ± 20 nM; at αvβ3 receptor it was 11 ± 0.8 nM. Moreover, the values for the Ki on αvβ5 receptors and on αvβ3 receptor were 13.8 nM and 8.7 nM, respectively.

Consider `CC[C@@]1(O)C(=O)OCc2c1cc1n(c2=O)Cc2c-1nc1ccccc1c2C=NOCCNC(=O)OCc1ccc(NC(=O)[C@H](CCCNC(N)=O)NC(=O)[C@H](C)NC(=O)c2cn(CCOCCOCCOCCC(=O)N[C@@H](CCCNC(N)=O)C(=O)NCCOCCOCCOCCC(=O)NCc3ccc(C[C@@H]4NC(=O)[C@@H](Cc5ccccc5)NC(=O)[C@H](CC(=O)O)NC(=O)CNC(=O)[C@H](CCCNC(=N)N)NC4=O)cc3)nn2)cc1` [ST4215], for which the IC50 worked out at 9 ± 0.7 nM in data set [1] (setting [6]), 2500 ± 700 nM in data set [2] (setting [7]), 4600 ± 800 nM in data set [4] (setting [8]) and 1700 ± 200 nM in data set [5] (setting [9]).

As for `CC[C@@]1(O)C(=O)OCc2c1cc1n(c2=O)Cc2c-1nc1ccccc1c2C=NOCCNC(=O)OCc1ccc(NC(=O)[C@H](CCCNC(N)=O)NC(=O)[C@H](C)NC(=O)COCCOCCOCC(=O)NCc2cn(CC(=O)N[C@@H](CCC(=O)NCCOCCOCCOCCC(=O)NCc3ccc(C[C@@H]4NC(=O)[C@@H](Cc5ccc(O)cc5)NC(=O)[C@H](CC(=O)O)NC(=O)CNC(=O)[C@H](CCCNC(=N)N)NC4=O)cc3)C(=O)NCCOCCOCCOCCC(=O)NCc3ccc(C[C@@H]4NC(=O)[C@@H](Cc5ccc(O)cc5)NC(=O)[C@H](CC(=O)O)NC(=O)CNC(=O)[C@H](CCCNC(=N)N)NC4=O)cc3)nn2)cc1` [ST5744TF1], the Ki on αvβ5 receptors (setting [10]) worked out at 2.95 nM; on αvβ3 receptor (setting [12]), 2.4 nM. Besides, the IC50 is 3.84 ± 0.12 nM on αvβ5 receptors (setting [11]); 8 ± 0.5 nM in data set [1] (human); 1000 ± 20 nM in data set [2] (human); 390 ± 90 nM in data set [4] (1 h); 450 ± 20 nM in data set [5] (1 h); 3.01 ± 0.11 nM at αvβ3 receptor (setting [13]).

Turning to Echistatin [reference compound], the Ki at αvβ5 receptors (setting [10]) amounted to 0.33 nM; at αvβ3 receptor (setting [12]), 0.26 nM. In addition, the IC50 is 0.29 ± 0.02 nM at αvβ5 receptors (setting [11]) and 0.28 ± 0.08 nM on αvβ3 receptor (setting [13]).

Values taken from patent US20110160147A1, “NOVEL DUAL TARGETING A[…]” (priority 2008, published 2011).
